# Test results from publication PMC11079024, “Identification of a family of species-selective complex I inhibitors as potential anthelmintics” (Nature Communications, 2024).
# pIC50: −log10 of the molar value. Several values for one entry are separate records, joined by “and”; a condition that tells them apart may be missing. Equal values may be shown once. Read-outs that look alike come from different tables or passages of the source.
# Target: C. elegans (N2) complex I (NADH:ubiquinone oxidoreductase) (Caenorhabditis elegans, UniProt P24887+Q93873+Q94360)
# Assay: biochemical
# Assay type: biochemical
# Summary of the method: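 Compounds were tested against freeze-thawed isolated mitochondria (0.2 mg/mL protein). NADH:decylubiquinone activity was monitored via DCIP absorbance at 600 nm, and the initial linear slope was normalised to solvent controls.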
# [1] = wild-type C. elegans, mean of replicates, read-out: in vitro complex I activity relative to solvent control, Mean
# [2] = wild-type C. elegans, single replicate, read-out: in vitro complex I activity relative to solvent control, individual replicate
# [3] = read-out: C. elegans mitochondrial complex I activity
# Chain of C. elegans (N2) complex I (NADH:ubiquinone oxidoreductase) (Q94360 17-199): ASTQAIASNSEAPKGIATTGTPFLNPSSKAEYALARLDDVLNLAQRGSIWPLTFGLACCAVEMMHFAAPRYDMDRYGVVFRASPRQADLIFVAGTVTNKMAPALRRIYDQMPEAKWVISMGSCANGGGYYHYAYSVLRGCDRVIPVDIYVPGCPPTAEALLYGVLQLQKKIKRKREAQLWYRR
# Chain of C. elegans (N2) complex I (NADH:ubiquinone oxidoreductase) (P24887 whole entry): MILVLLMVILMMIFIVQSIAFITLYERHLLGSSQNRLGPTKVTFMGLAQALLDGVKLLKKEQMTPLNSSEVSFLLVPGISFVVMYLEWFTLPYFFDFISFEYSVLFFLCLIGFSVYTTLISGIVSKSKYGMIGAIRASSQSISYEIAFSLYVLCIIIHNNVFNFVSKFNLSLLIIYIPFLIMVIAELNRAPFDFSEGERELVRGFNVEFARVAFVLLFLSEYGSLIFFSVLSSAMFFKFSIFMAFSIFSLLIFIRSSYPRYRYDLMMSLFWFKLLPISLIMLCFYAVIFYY
# Chain of C. elegans (N2) complex I (NADH:ubiquinone oxidoreductase) (Q93873 31-482): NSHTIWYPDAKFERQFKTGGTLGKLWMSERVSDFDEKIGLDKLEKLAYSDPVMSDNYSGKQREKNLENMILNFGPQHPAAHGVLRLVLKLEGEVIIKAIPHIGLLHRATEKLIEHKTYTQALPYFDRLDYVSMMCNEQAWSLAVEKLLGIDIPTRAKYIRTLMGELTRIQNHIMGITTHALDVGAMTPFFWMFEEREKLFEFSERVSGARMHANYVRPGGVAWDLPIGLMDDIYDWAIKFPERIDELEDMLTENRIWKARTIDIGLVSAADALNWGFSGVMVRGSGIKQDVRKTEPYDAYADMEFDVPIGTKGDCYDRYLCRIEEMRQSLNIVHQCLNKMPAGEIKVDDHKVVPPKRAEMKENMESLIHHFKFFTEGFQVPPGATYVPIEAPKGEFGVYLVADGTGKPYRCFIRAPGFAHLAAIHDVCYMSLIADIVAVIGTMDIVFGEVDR
smiles,measurement,setting,value
"C=C(C)[C@H]1Cc2c(ccc3c2O[C@@H]2COc4cc(OC)c(OC)cc4[C@@H]2C3=O)O1 [Rotenone, reference compound]",activity at 100 µM,"100 µM compound, relative to solvent control, mean (SEM), read-out: % Activity Complex I",0%
same,activity at 100 µM,"100 μM inhibitor, in vitro activity relative to solvent control, N2 C. elegans mitochondria, single replicate, read-out: CI Activity",0%
same,activity at 100 µM,"100 μM of NPD compound, C. elegans mitochondria, individual biological replicates, read-out: Percent in vitro activity, Complex I (single replicate Rep1-Rep4)",0%
same,activity at 100 µM,"100 μM of NPD compound, C. elegans mitochondria, mean of four biological replicates, read-out: Percent in vitro activity, Complex I (Mean)",0%
same,"Absorbance DCIP [600nm], complex I","30 s, single replicate",1.265 and 1.244 and 1.248
same,"Absorbance DCIP [600nm], complex I","60 s, single replicate",1.261 and 1.240 and 1.243
same,"Absorbance DCIP [600nm], complex I","90 s, single replicate",1.257 and 1.236 and 1.240
same,"Absorbance DCIP [600nm], complex I","120 s, single replicate",1.252 and 1.232 and 1.237
same,"Absorbance DCIP [600nm], complex I","150 s, single replicate",1.248 and 1.229 and 1.234
same,"Absorbance DCIP [600nm], complex I","180 s, single replicate",1.244 and 1.226 and 1.230
same,"Absorbance DCIP [600nm], complex I","210 s, single replicate",1.240 and 1.223 and 1.227
same,"Absorbance DCIP [600nm], complex I","240 s, single replicate",1.237 and 1.219 and 1.223
same,"Absorbance DCIP [600nm], complex I","270 s, single replicate",1.233 and 1.216 and 1.220 and 1.199
same,"Absorbance DCIP [600nm], complex I","300 s, single replicate",1.229 and 1.212 and 1.216 and 1.196
same,"Absorbance DCIP [600nm], complex I","330 s, single replicate",1.225 and 1.209 and 1.213 and 1.193
same,"Absorbance DCIP [600nm], complex I","360 s, single replicate",1.221 and 1.206 and 1.210 and 1.190
same,"Absorbance DCIP [600nm], complex I","390 s, single replicate",1.218 and 1.203 and 1.206 and 1.187
same,"Absorbance DCIP [600nm], complex I","420 s, single replicate",1.214 and 1.199 and 1.203 and 1.185
same,"Absorbance DCIP [600nm], complex I","450 s, single replicate",1.210 and 1.196 and 1.200 and 1.182
same,"Absorbance DCIP [600nm], complex I","480 s, single replicate",1.206 and 1.193 and 1.197 and 1.179
same,"Absorbance DCIP [600nm], complex I","510 s, single replicate",1.203 and 1.190 and 1.193 and 1.176
same,"Absorbance DCIP [600nm], complex I","540 s, single replicate",1.199 and 1.187 and 1.190 and 1.174
same,"Absorbance DCIP [600nm], complex I","570 s, single replicate",1.195 and 1.183 and 1.187
same,"Absorbance DCIP [600nm], complex I","600 s, single replicate",1.192 and 1.180 and 1.184
same,"Absorbance DCIP [600nm], complex I","630 s, single replicate",1.188 and 1.177 and 1.181
same,"Absorbance DCIP [600nm], complex I","660 s, single replicate",1.185 and 1.174 and 1.177
same,"Absorbance DCIP [600nm], complex I","690 s, single replicate",1.181 and 1.171 and 1.174
same,"Absorbance DCIP [600nm], complex I","720 s, single replicate",1.178 and 1.168 and 1.171
same,"Absorbance DCIP [600nm], complex I","750 s, single replicate",1.174 and 1.164 and 1.168
same,"Absorbance DCIP [600nm], complex I","780 s, single replicate",1.171 and 1.161 and 1.165
same,"Absorbance DCIP [600nm], complex I","810 s, single replicate",1.167 and 1.158 and 1.162
same,"Absorbance DCIP [600nm], complex I","840 s, single replicate",1.164 and 1.155 and 1.159
same,"Absorbance DCIP [600nm], complex I","870 s, single replicate",1.161 and 1.152 and 1.156
same,"Absorbance DCIP [600nm], complex I","900 s, single replicate",1.157 and 1.149 and 1.153
same,remaining activity at 0.0001 µM,[1],95.7%
same,remaining activity at 0.0001 µM,[2],90.6%
same,remaining activity at 0.0005 µM,[1],104%
same,remaining activity at 0.0005 µM,[2],108%
same,remaining activity at 0.001 µM,"dose 0.001 µM, wild-type C. elegans, mean of replicates, read-out: in vitro complex I activity relative to solvent control, Mean",104%
same,remaining activity at 0.0025 µM,[1],110%
same,remaining activity at 0.0025 µM,[2],108%
same,remaining activity at 0.005 µM,[1],101%
same,remaining activity at 0.005 µM,[2],97%
same,remaining activity at 0.013 µM,[1],90.6%
same,remaining activity at 0.013 µM,[2],89.2%
same,remaining activity at 0.025 µM,"dose 0.025 µM, wild-type C. elegans, mean of replicates, read-out: in vitro complex I activity relative to solvent control, Mean",89.6%
same,remaining activity at 0.063 µM,[1],27%
same,remaining activity at 0.063 µM,[2],21.5%
same,remaining activity at 0.125 µM,[1],26.8%
same,remaining activity at 0.125 µM,[2],17.8%
same,remaining activity at 0.313 µM,"dose 0.313 µM, wild-type C. elegans, mean of replicates, read-out: in vitro complex I activity relative to solvent control, Mean",0.682%
same,remaining activity at 0.625 µM,"dose 0.625 µM, wild-type C. elegans, mean of replicates, read-out: in vitro complex I activity relative to solvent control, Mean",0.888%
same,remaining activity at 1.5 µM,"dose 1.5 µM, wild-type C. elegans, mean of replicates, read-out: in vitro complex I activity relative to solvent control, Mean",7.71%
same,remaining activity at 3 µM,"dose 3 µM, wild-type C. elegans, mean of replicates, read-out: in vitro complex I activity relative to solvent control, Mean",5.32%
same,remaining activity at 15 µM,"dose 15 µM, wild-type C. elegans, mean of replicates, read-out: in vitro complex I activity relative to solvent control, Mean",5.62%
same,remaining activity at 37.5 µM,"dose 37.5 µM, wild-type C. elegans, mean of replicates, read-out: in vitro complex I activity relative to solvent control, Mean",6.72%
same,remaining activity at 75 µM,"dose 75 µM, wild-type C. elegans, mean of replicates, read-out: in vitro complex I activity relative to solvent control, Mean",3.64%
same,pIC50,"wild-type (N2) mitochondria, read-out: C. elegans Complex I IC50",7.35
O=C(NCCc1ccc(Cl)cc1)c1ccccc1C(F)(F)F [Wact-11],% Activity Complex I,"100 µM compound, relative to solvent control, mean (SEM)",84.83 (1.45) %
same,CI Activity,"100 μM inhibitor, in vitro activity relative to solvent control, N2 C. elegans mitochondria, Mean",84.830%
same,"Percent in vitro activity, Complex I (single replicate Rep1-Rep4)","100 μM of NPD compound, C. elegans mitochondria, individual biological replicates",83.274% and 93.104% and 79.669%
same,"Percent in vitro activity, Complex I (Mean)","100 μM of NPD compound, C. elegans mitochondria, mean of four biological replicates",84.830%
CCCn1c(COc2ccc(C)cc2)nc2ccccc21 [Compound 6944471],activity at 0.0001 µM,[3],95.2%
same,activity at 0.0005 µM,[3],103%
same,activity at 0.001 µM,[3],96.6%
same,activity at 0.0025 µM,[3],100%
same,activity at 0.005 µM,[3],90.8%
same,activity at 0.013 µM,[3],108%
same,activity at 0.025 µM,[3],106%
same,activity at 0.063 µM,[3],111%
same,activity at 0.125 µM,[3],123%
same,activity at 0.313 µM,[3],103%
same,activity at 0.625 µM,[3],113%
same,activity at 1.5 µM,[3],107%
same,activity at 3 µM,[3],96.1%
same,activity at […],"Dose 7.5 µM, read-out: C. elegans mitochondrial complex I activity",108%
same,activity at 15 µM,[3],88.5%
same,activity at 37.5 µM,[3],89.5%
same,activity at 75 µM,[3],64.7%
same,pIC50,"wild-type C. elegans mitochondria, estimated from fitted dose-response curves, read-out: C. elegans Complex I IC50",< 4.12
Cc1ccc(CSCc2nc3ccccc3[nH]2)cc1 [Compound 7121781],activity at 0.0001 µM,[3],100%
same,activity at 0.0005 µM,[3],95.4%
same,activity at 0.001 µM,[3],94.3%
same,activity at 0.0025 µM,[3],98%
same,activity at 0.005 µM,[3],98.1%
same,activity at 0.013 µM,[3],104%
same,activity at 0.025 µM,[3],99.3%
same,activity at 0.063 µM,[3],89.7%
same,activity at 0.125 µM,[3],95.8%
same,activity at 0.313 µM,[3],87.2%
same,activity at 0.625 µM,[3],99.9%
same,activity at 1.5 µM,[3],94%
same,activity at 3 µM,[3],73.4%
same,activity at 15 µM,[3],71.1%
same,activity at 37.5 µM,[3],43.5%
same,activity at 75 µM,[3],23.3%
same,pIC50,"in vitro complex I dose response on C. elegans mitochondria, average of at least two biological replicates, fit in R (DRC), read-out: IC50 C. elegans complex I",4.54
same,Log IC50 C. elegans complex I,"log10 of IC50 in µM, C. elegans mitochondria",1.46 µM
same,pIC50,"wild-type C. elegans mitochondria, read-out: C. elegans Complex I IC50",4.54
